{"source": "patent US11919886B2", "about": "“4,9-dioxo-4,9-dihydronaphtho[2,3-B]furan-3-carboxamide derivatives and uses thereof for treating proliferative diseases and infectious diseases” (Academia Sinica, priority 2016, dated 2024)", "key": {"[1]": {"system": "PC9/IR (human lung adenocarcinoma cells, EGFR del 19 mutation but resistant to gefitinib)", "test": "SRB cytotoxicity assay, PC9/IR", "conditions": "72 h"}, "[2]": {"system": "Streptococcus gallolyticus subsp. gallolyticus", "test": "MIC, broth micro dilution method", "assay_type": "cell-based", "conditions": "strain ATCC43143, S. bovis"}, "[3]": {"system": "Breast Cancer Cells (MCF)", "test": "Cell viability by Cell-TiterGlo", "assay_type": "cell-based", "conditions": "Homo sapiens, 48 h, two days, read-out: % of the activities in the presence of ~10 μM compound, Breast Cancer Cells (MCF)", "method": "(§1) Compound 1 and its analogues shown in Table 6 below were tested for their activities on cancer cells and bacterial cells using assays described herein. H1975, MDA-MB231, and MCF7 cells were incubated in the presence of the compounds in cell growth medium containing 10% fetal bovine serum for two days in a mammalian cell culture incubatoe. Cell viability were monitored by using Cell-TiterGlo. Staphylococcus aureus and Escherichia coli were incubated in the presence of the compounds in Muller-Hinton broth for 16-24 hours in a 37° C. incubator. Bacterial growth was monitored by using Alamar Blue (Invitrogen)."}, "[4]": {"system": "Breast Cancer Cells (MDA-MB231)", "test": "Cell viability by Cell-TiterGlo", "assay_type": "cell-based", "conditions": "Homo sapiens, MDA-MB-231, 48 h, two days, read-out: % of the activities in the presence of ~10 μM compound, Breast Cancer Cells (MDA-MB231)", "method": "as §1"}, "[5]": {"system": "Lung Cancer Cells (H1975)", "test": "Cell viability by Cell-TiterGlo", "assay_type": "cell-based", "conditions": "Homo sapiens, NCI-H1975, 48 h, two days, read-out: % of the activities in the presence of ~10 μM compound, Lung Cancer Cells (H1975)", "method": "as §1"}, "[6]": {"biological_target": "T1, MCM2 (Homo sapiens, UniProt P49736)", "T1 construct": "The MCM2 proteins were pulled down by incubating the H1975 lysate with compound 1-conjugated magnetic beads; endogenous in cells; host or cells: H1975", "T1 sequence (P49736 whole entry)": "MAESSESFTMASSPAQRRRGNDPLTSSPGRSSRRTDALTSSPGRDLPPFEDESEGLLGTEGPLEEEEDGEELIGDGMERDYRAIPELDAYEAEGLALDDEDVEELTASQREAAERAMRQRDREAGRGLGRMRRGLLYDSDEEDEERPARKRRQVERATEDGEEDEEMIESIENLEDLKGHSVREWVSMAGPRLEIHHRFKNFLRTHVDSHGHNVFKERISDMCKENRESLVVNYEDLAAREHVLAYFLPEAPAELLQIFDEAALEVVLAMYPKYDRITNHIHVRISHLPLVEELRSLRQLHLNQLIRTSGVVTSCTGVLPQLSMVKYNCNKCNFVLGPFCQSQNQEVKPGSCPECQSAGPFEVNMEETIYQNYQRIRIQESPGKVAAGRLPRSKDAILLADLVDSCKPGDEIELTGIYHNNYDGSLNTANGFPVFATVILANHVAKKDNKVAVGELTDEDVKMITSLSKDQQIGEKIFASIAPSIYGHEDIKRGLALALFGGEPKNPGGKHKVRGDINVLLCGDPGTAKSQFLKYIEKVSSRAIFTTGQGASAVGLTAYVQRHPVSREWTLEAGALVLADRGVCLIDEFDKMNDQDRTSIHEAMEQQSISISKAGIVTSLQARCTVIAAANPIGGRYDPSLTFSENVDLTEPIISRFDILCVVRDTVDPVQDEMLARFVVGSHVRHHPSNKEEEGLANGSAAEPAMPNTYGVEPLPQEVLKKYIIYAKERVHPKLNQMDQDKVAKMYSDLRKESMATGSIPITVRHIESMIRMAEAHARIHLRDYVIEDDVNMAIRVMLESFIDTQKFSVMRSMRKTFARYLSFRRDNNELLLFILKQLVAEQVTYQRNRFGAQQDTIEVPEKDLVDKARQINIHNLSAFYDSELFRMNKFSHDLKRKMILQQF", "test": "Chromatin-bound MCM2 after double thymidine block (immunoblotting)", "assay_type": "cell-based", "conditions": "H1975, 4.5 hour, 6 hour and 9 hour treatment", "method": "To explore whether Compound 1-induced protein degradation also interfered with the DNA binding ability of MCM2, HI 975 cells were synchronized using a double thymidine block followed by release with DMSO or compound 1 treatment for 3 to 9 hours. Exemplary results are shown in Panel (D) of FIG. 3. Then, the cells were harvested to obtain the chromatin-bound fraction, and MCM2 was detected by immunoblotting."}, "[7]": {"system": "Staphylococcus aureus", "test": "Bacterial growth by Alamar Blue in Muller-Hinton broth", "assay_type": "cell-based", "method": "as §1"}, "[8]": {"system": "Escherichia coli", "test": "Bacterial growth by Alamar Blue in Muller-Hinton broth", "assay_type": "cell-based", "conditions": "16-24 hours, read-out: % of the activities in the presence of ~10 μM compound, Escherichia coli", "method": "as §1"}, "[9]": {"system": "Enterococcus faecalis", "test": "MIC, broth micro dilution method", "assay_type": "cell-based"}, "[10]": {"system": "HS68 (human foreskin fibroblast cells, used as normal cells)", "test": "SRB cytotoxicity assay, HS68 normal cells", "conditions": "Hs68, 72 h"}, "[11]": {"system": "Streptococcus infantarius subsp. coli", "test": "MIC, broth micro dilution method", "assay_type": "cell-based", "conditions": "strain ATCC BAA-103, S. bovis"}, "[12]": {"system": "Staphylococcus lugdunensis", "test": "MIC, broth micro dilution method", "assay_type": "cell-based", "conditions": "clinical isolate; for MIC: Staphylococcus lugdunensis, strain NTUH-4179, methicillin-resistant"}, "[13]": {"system": "Acinetobacter baumannii", "test": "MIC, broth micro dilution method", "assay_type": "cell-based"}, "[14]": {"system": "Escherichia coli", "test": "MIC, broth micro dilution method", "assay_type": "cell-based"}, "[15]": {"system": "Streptococcus infantarius subsp. infantarius", "test": "MIC, broth micro dilution method", "assay_type": "cell-based", "conditions": "strain ATCC BAA-102, S. bovis"}, "[16]": {"system": "A549 (adenocarcinomic human alveolar basal epithelial cells)", "test": "SRB cytotoxicity assay, A549", "conditions": "A549, 72 h"}, "[17]": {"system": "Staphylococcus haemolyticus", "test": "MIC, broth micro dilution method", "assay_type": "cell-based"}, "[18]": {"system": "Shigella sonnei", "test": "MIC, broth micro dilution method", "assay_type": "cell-based"}, "[19]": {"biological_target": "T1, MCM2", "test": "MCM2 ubiquitination (Myc-Ub transfection, MCM2 immunoprecipitation)", "assay_type": "cell-based", "conditions": "H1975 co-expressing Myc-Ub, 140 nM, 12 hours", "method": "To determine whether Compound 1 triggers MCM2 degradation through promoting MCM2 ubiquitination, Myc-tagged ubiquitin (Myc-Ub) was transfected into H1975 cells treated with or without compound 1 and followed by MCM2 immunoprecipitation. The cells were transiently transfected with pcDNA3-Myc-Ub and treated with or without 140 nM of compound 1 combined with MG132. After 12 hours, the cells were harvested and MCM2 proteins were precipitated with specific anti-MCM2 antibodies. The ubiqiuitination pattern were detected by immunoblotting. IgG served as the antibody control in the immunoprecipitation experiment."}, "[20]": {"system": "Enterococcus faecium", "test": "MIC, broth micro dilution method", "assay_type": "cell-based"}, "[21]": {"system": "Staphylococcus aureus (MSSA, MRSA)", "test": "Disc diffusion method, inhibition zones", "assay_type": "cell-based", "conditions": "for zone of inhibition at 5 µg/disc: Staphylococcus aureus, 5 μg"}, "[22]": {"conditions": "strain NTUH-6767, methicillin-resistant"}}, "note": "Like-named read-outs stand apart in the source and are kept apart here.", "data": [{"smiles": "Cc1oc2c(c1C(=O)NCCCn1ccnc1)C(=O)c1ccccc1C2=O", "note": "[Compound 1, N-(3-(1H-Imidazol-1-yl)propyl)-2-methyl-4,9-dioxo-4,9-dihydronaphtho [2,3-b]furan-3-carboxamide]", "values": [{"measurement": "IC50", "setting": "[1]", "result": 0.048, "unit": "µM"}, {"measurement": "MIC", "setting": "[2]; read-out: MIC (μg/ml) 100%", "result": 4, "unit": "µg/mL"}, {"measurement": "MIC", "setting": "[2]; read-out: MIC (μg/ml) 50%", "result": 2, "unit": "µg/mL"}, {"measurement": "viability at 10 µM", "setting": "[3]", "result": 6, "unit": "%"}, {"measurement": "viability at 10 µM", "setting": "[4]", "result": 13.7, "unit": "%"}, {"measurement": "viability at 10 µM", "setting": "[5]", "result": 4.2, "unit": "%"}, {"measurement": "chromatin-bound form of MCM2 vs DMSO control", "setting": "[6]", "result": "significantly reduced"}, {"measurement": "MIC", "setting": "[7]", "result": 2, "unit": "mg/L"}, {"measurement": "activity at 10 µM", "setting": "[7]; ~10 μM, 16-24 hours, Alamar Blue, read-out: % of the activities in the presence of ~10 μM compound, Staphylococcus aureus", "result": 38.1, "unit": "%"}, {"measurement": "activity at 10 µM", "setting": "[8]", "result": "> 100", "unit": "%"}, {"measurement": "MIC", "setting": "[9]; read-out: MIC (μg/ml) 100%, strain ATCC19433", "result": 32, "unit": "µg/mL"}, {"measurement": "MIC", "setting": "[9]; strain ATCC19433, read-out: MIC (μg/ml) 50%", "result": 16, "unit": "µg/mL"}, {"measurement": "IC50", "setting": "[10]", "result": "> 1", "unit": "µM"}, {"measurement": "MIC", "setting": "[11]; read-out: MIC (μg/ml) 100%", "result": 4, "unit": "µg/mL"}, {"measurement": "MIC", "setting": "[11]; read-out: MIC (μg/ml) 50%", "result": 2, "unit": "µg/mL"}, {"measurement": "MIC", "setting": "[12]; read-out: MIC (μg/ml) 100%", "result": 4, "unit": "µg/mL"}, {"measurement": "MIC", "setting": "[12]; read-out: MIC (μg/ml) 50%", "result": 0.5, "unit": "µg/mL"}, {"measurement": "MIC (μg/ml) 50%", "setting": "[12]; [22]", "result": 0.5, "unit": "µg/mL"}, {"measurement": "MIC (μg/ml) 100%", "setting": "[12]; [22]", "result": 4, "unit": "µg/mL"}, {"measurement": "MIC", "setting": "[13]; read-out: MIC (μg/ml) 100%, strain ATCC19606, gram negative", "result": "> 32", "unit": "µg/mL"}, {"measurement": "MIC", "setting": "[13]; strain ATCC19606, gram negative, read-out: MIC (μg/ml) 50%", "result": "> 32", "unit": "µg/mL"}, {"measurement": "MIC", "setting": "[14]; read-out: MIC (μg/ml) 100%, strain ATCC33625, gram negative", "result": "> 32", "unit": "µg/mL"}, {"measurement": "MIC", "setting": "[14]; strain ATCC33625, gram negative, read-out: MIC (μg/ml) 50%", "result": "> 32", "unit": "µg/mL"}, {"measurement": "MIC", "setting": "[15]; read-out: MIC (μg/ml) 100%", "result": 8, "unit": "µg/mL"}, {"measurement": "MIC", "setting": "[15]; read-out: MIC (μg/ml) 50%", "result": 4, "unit": "µg/mL"}, {"measurement": "IC50", "setting": "[16]", "result": 0.053, "unit": "µM"}, {"measurement": "MIC", "setting": "[17]; read-out: MIC (μg/ml) 100%, strain ATCC29970, methicillin-susceptible", "result": 4, "unit": "µg/mL"}, {"measurement": "MIC", "setting": "[17]; strain ATCC29970, methicillin-susceptible, read-out: MIC (μg/ml) 50%", "result": 2, "unit": "µg/mL"}, {"measurement": "MIC", "setting": "[18]; read-out: MIC (μg/ml) 100%, strain ATCC9290, gram negative", "result": "> 32", "unit": "µg/mL"}, {"measurement": "MIC", "setting": "[18]; strain ATCC9290, gram negative, read-out: MIC (μg/ml) 50%", "result": "> 32", "unit": "µg/mL"}, {"measurement": "Ubiquitylated MCM2", "setting": "[19]", "result": "detected in treated cells"}, {"measurement": "MIC", "setting": "[20]; read-out: MIC (μg/ml) 100%, strain ATCC19434", "result": 16, "unit": "µg/mL"}, {"measurement": "MIC", "setting": "[20]; strain ATCC19434, read-out: MIC (μg/ml) 50%", "result": 2, "unit": "µg/mL"}, {"measurement": "antimicrobial activity against all the MRSA strains", "setting": "[21]; 5 μg concentration, disc diffusion", "result": "showed antimicrobial activity"}, {"measurement": "antibacterial activity against MRSA as compared to ciprofloxacin", "setting": "[21]; MRSA", "result": "stronger antibacterial activity"}, {"measurement": "zone of inhibition at 5 µg/disc", "setting": "[21]; disc diffusion, read-out: average diameter of the inhibition zone", "result": 25.5, "unit": "mm"}, {"measurement": "zone of inhibition at 5 µg/disc", "setting": "[21]; strain MRSA14979, read-out: Inhibition zone (mm)", "result": 25, "unit": "mm"}, {"measurement": "zone of inhibition at 5 µg/disc", "setting": "[21]; strain MRSA15211, read-out: Inhibition zone (mm)", "result": 26, "unit": "mm"}, {"measurement": "zone of inhibition at 5 µg/disc", "setting": "[21]; strain NTUH-104-2, MRSA (SCCmec VT, ST45), read-out: Inhibition zone (mm)", "result": 24, "unit": "mm"}, {"measurement": "zone of inhibition at 5 µg/disc", "setting": "[21]; strain NTUH-2102, MRSA (SCCmec II, ST5, FA-S), read-out: Inhibition zone (mm)", "result": 26, "unit": "mm"}, {"measurement": "zone of inhibition at 5 µg/disc", "setting": "[21]; strain NTUH-4578, MRSA (SCCmec IV, ST59), read-out: Inhibition zone (mm)", "result": 27, "unit": "mm"}, {"measurement": "zone of inhibition at 5 µg/disc", "setting": "[21]; strain NTUH-9383, MRSA (SCCmec III, ST239, FA-R), read-out: Inhibition zone (mm)", "result": 29, "unit": "mm"}, {"measurement": "zone of inhibition at 5 µg/disc", "setting": "[21]; strain PM1, MRSA (SCCmec VT, ST59), read-out: Inhibition zone (mm)", "result": 25, "unit": "mm"}, {"measurement": "zone of inhibition at 5 µg/disc", "setting": "[21]; strain SA10451, read-out: Inhibition zone (mm)", "result": 24, "unit": "mm"}, {"measurement": "zone of inhibition at 5 µg/disc", "setting": "[21]; strain SA10780, read-out: Inhibition zone (mm)", "result": 25, "unit": "mm"}, {"measurement": "zone of inhibition at 5 µg/disc", "setting": "[21]; strain SAI 1863, read-out: Inhibition zone (mm)", "result": 25, "unit": "mm"}, {"measurement": "zone of inhibition at 5 µg/disc", "setting": "[21]; ATCC 25923 / MRSA / MSSA, strain ATCC25923, MSSA, read-out: Inhibition zone (mm)", "result": 26, "unit": "mm"}]}]}
